{"source": "patent US8193315B2", "about": "(Sanford-Burnham Medical Research Institute, priority 2001, dated 2012)", "type_in_all_cases": "cell-based", "key": {"cerebrocortical neurons": {"system": "cerebrocortical neurons", "assay": "Single-channel recording from outside-out patches of cerebrocortical neurons"}, "NR1/NR3B receptors": {"target": "T1, NR1/NR3B receptors (Rattus norvegicus, UniProt P35439+Q8VHN2)", "T1 construct": "Full-length cDNAs encoding NMDA receptor subunits were linearized and used as templates for synthesis of cRNA; expressed in transfected cells; host or cells: Xenopus laevis oocytes injected with cRNA", "T1 sequence (Q8VHN2 25-1002, other chains not shown)": "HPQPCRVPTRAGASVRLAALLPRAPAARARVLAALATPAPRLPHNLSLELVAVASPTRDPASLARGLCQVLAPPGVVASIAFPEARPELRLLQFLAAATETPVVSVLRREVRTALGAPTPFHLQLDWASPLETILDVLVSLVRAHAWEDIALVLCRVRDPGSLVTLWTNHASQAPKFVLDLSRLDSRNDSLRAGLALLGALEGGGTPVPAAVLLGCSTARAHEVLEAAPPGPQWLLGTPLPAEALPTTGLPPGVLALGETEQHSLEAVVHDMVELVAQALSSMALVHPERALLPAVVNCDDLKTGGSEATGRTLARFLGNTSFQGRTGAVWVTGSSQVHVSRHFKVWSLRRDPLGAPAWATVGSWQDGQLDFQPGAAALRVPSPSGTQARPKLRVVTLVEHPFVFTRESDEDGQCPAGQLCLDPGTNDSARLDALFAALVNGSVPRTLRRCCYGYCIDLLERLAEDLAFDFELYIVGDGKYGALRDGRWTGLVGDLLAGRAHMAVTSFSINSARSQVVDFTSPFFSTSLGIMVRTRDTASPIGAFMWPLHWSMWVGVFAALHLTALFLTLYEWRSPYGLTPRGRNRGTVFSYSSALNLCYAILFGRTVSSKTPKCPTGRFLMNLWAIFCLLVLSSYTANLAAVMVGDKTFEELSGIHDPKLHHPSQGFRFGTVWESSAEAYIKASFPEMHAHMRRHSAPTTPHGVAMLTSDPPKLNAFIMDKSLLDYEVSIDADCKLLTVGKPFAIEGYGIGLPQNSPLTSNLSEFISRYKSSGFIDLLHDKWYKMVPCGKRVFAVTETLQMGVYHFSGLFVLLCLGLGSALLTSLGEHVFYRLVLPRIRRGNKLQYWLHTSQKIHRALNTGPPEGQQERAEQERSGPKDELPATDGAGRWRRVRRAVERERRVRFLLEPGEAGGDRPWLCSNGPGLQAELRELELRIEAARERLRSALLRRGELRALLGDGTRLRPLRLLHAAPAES", "assay": "Glycine-evoked whole-oocyte currents of NR1/NR3B receptors, dual-electrode voltage clamp in Xenopus oocytes", "description": "NR3B cRNA for oocyte expression was produced as follows. The full-length NR3B cDNA was constructed in the pCMV6-XL4 vector (OriGene Technologies, Inc., Rockville, Md.), which contains a T7 promoter upstream of the cDNA insert. […] The truncated cRNA could potentially encode a dominant negative form of NR3B. Therefore, a new vector was constructed to facilitate production of exclusively full-length NR3B cRNA. Construction of this vector proceeded as follows. NR1 cDNA was excised from the pGEM-HE/NR1 vector (a gift from S. F. Heinemann) by digestion with EcoRI and the two ends of the truncated pGEM-HE vector were re-ligated. The truncated pGEM-HE vector retained the 5′ and 3′ UTRs of the X. laevis β-globin gene for high level protein expression in frog oocytes. The SfoI-KpnI fragment of truncated pGEM-HE, which contains the T7 promoter, was replaced with the PvuII-KpnI fragment of pBluescript II KS, which contains the T3 promoter, to generate pJC32. The abbreviated multiple cloning site of pJC32 was then replaced with the multiple cloning site from pcDNA3.1(+) (Invitrogen, Carlsbad, Calif.) by ligating the 102 bp PmeI fragment of pcDNA3.1(+) into the 3 kb SmaI-EcoRV fragment of pJC32 to generate pJC34. […] The resulting vector, pJC39, contains three rare restriction sites downstream of the multiple cloning site to facilitate linearization prior to in vitro transcription using T3 RNA polymerase.\nThe full-length NR3B (B4 form) cDNA was then excised from pCMV6-XL4 by digestion with EcoRI and XbaI, and the 3.2 kb fragment was ligated into EcoRI/XbaI-digested pJC39. The resulting vector, pJC42, was linearized with PmeI, and in vitro transcription was performed using the mMessage mMachine T3 kit (Ambion, Inc., Austin, Tex.) according to the manufacturer's instructions.\nMicropipettes were filled with 3 M KCl."}, "NR1/NR3A receptors": {"target": "T2, NR1/NR3A receptors (Rattus norvegicus, UniProt P35439+Q9R1M7)", "T2 construct": "Full-length cDNAs encoding NMDA receptor subunits were linearized and used as templates for synthesis of cRNA; expressed in transfected cells; host or cells: Xenopus laevis oocytes injected with cRNA", "T2 sequence (Q9R1M7 24-1115 isoform Q9R1M7-2 limits assumed, other chains not shown)": "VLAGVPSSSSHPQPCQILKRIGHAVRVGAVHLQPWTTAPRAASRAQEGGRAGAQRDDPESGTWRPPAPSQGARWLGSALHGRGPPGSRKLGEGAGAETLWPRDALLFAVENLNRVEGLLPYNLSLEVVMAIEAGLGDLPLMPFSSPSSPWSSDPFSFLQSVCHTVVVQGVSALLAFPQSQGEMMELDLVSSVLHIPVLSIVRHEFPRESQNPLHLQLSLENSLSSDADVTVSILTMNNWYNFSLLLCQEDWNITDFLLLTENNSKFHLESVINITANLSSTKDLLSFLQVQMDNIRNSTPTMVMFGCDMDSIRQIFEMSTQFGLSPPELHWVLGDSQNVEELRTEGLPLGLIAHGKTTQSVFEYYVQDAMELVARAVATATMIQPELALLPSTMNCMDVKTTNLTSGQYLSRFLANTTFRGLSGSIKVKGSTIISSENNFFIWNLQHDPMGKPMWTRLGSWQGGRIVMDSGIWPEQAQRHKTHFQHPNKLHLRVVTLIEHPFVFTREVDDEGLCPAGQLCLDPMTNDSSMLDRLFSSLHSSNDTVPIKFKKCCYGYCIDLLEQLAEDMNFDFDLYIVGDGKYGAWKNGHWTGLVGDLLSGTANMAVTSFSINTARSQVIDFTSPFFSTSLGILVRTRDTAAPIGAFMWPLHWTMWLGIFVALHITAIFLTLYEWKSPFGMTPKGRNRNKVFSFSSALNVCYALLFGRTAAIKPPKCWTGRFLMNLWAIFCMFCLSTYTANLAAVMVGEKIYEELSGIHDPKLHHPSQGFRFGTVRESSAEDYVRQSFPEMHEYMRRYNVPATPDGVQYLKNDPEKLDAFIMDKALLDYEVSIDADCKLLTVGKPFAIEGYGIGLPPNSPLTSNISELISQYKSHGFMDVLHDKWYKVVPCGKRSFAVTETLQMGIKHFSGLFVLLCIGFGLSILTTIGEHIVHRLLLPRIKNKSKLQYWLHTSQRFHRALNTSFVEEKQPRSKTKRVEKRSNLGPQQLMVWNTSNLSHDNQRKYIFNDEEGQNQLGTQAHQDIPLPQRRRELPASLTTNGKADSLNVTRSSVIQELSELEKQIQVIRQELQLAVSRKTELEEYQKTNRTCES", "assay": "Glycine-evoked whole-oocyte currents of NR1/NR3A receptors, two-electrode voltage recordings in Xenopus oocytes"}, "[1]": {"system": "cultured cerebrocortical neurons"}}, "note": "“Also recorded” adds a separate entry of the source. Like-named read-outs stand apart in the source and are kept apart here."}
{"smiles": "[Mg+2]", "note": "[Mg^2+]", "values": [{"measurement": "effect on channel activity (NPo) evoked by 2.5 μM glycine", "setting": "cerebrocortical neurons", "result": "little effect"}, {"measurement": "effect on glycine-activated single channels of cerebrocortical neurons", "setting": "cerebrocortical neurons", "result": "little effect"}, {"measurement": "sensitivity of NR1/NR3B receptors to open-channel blocker compared to NR1/NR2A receptors", "setting": "NR1/NR3B receptors", "result": "drastically less sensitive"}, {"measurement": "sensitivity of NR1/NR3A receptors to open-channel blocker compared to NR1/NR2A receptors", "setting": "NR1/NR3A receptors", "result": "drastically less sensitive"}]}
{"smiles": "N[C@@H](CCC(=O)O)C(=O)O", "note": "[L-glutamate]", "values": [{"measurement": "activation of NR1/NR3B receptors by the substance alone (without co-agonist)", "setting": "NR1/NR3B receptors", "result": "did not evoke glycine-independent responses; also recorded: did not evoke a glycine-independent response"}, {"measurement": "effect on glycine-evoked currents of NR1/NR3B receptors", "setting": "NR1/NR3B receptors", "result": "little or no effect; also recorded: did not potentiate glycine-evoked currents"}, {"measurement": "effect on glycine-evoked currents of NR1/NR3A receptors", "setting": "NR1/NR3A receptors", "result": "did not potentiate glycine-evoked currents"}]}
{"smiles": "N[C@H](CCCP(=O)(O)O)C(=O)O", "note": "[AP5, D-(−)-2-amino-5-phosphonopentanoate]", "values": [{"measurement": "effect on glycine-evoked currents of NR1/NR3B receptors at 10 μM", "setting": "NR1/NR3B receptors", "result": "little or no effect"}, {"measurement": "effect on glycine-evoked currents of NR1/NR3A receptors at 10 μM", "setting": "NR1/NR3A receptors", "result": "little or no effect"}]}
{"smiles": "N[C@H](CO)C(=O)O", "note": "[D-serine]", "values": [{"measurement": "effect on channel activity (NPo) evoked by 2.5 μM glycine", "setting": "cerebrocortical neurons", "result": "decreased"}, {"measurement": "effect on glycine-activated single channels of cerebrocortical neurons", "setting": "cerebrocortical neurons", "result": "inhibited"}, {"measurement": "activation of NR1/NR3B receptors by the substance alone (without co-agonist)", "setting": "NR1/NR3B receptors; Xenopus oocytes", "result": "evokes small NR1/NR3B currents alone; also recorded: activated NR1/NR3B receptors in the absence of glycine; also recorded: evoked small currents alone"}, {"measurement": "effect on glycine-evoked currents of NR1/NR3B receptors", "setting": "NR1/NR3B receptors; Xenopus oocytes, glycine 10 μM, NMDA or L-glutamate 100 μM unless otherwise indicated", "result": "dose-dependently inhibits currents in the presence of glycine; also recorded: inhibited the glycine response"}, {"measurement": "effect on glycine-evoked bursting response of cultured neurons", "setting": "[1]", "result": "inhibited"}, {"measurement": "glycine-responsive cells in which glycine-triggered bursting was inhibited", "setting": "[1]", "result": "5 of 22"}, {"measurement": "activation of NR1/NR3A receptors by the substance alone", "setting": "NR1/NR3A receptors; Xenopus oocytes", "result": "did not independently manifest any agonist activity"}, {"measurement": "effect on glycine-evoked currents of NR1/NR3A receptors", "setting": "NR1/NR3A receptors; Xenopus oocytes", "result": "even more potent antagonist"}]}
{"smiles": "NC1(C(=O)O)CC1", "note": "[ACPC, 1-aminocyclopropanecarboxylic acid]", "values": [{"measurement": "effect on glycine-evoked currents of NR1/NR3B receptors", "setting": "NR1/NR3B receptors", "result": "inhibited"}]}
{"smiles": "NCC(=O)O", "note": "[glycine]", "values": [{"measurement": "recordings in which glycine triggered neuronal bursting", "setting": "[1]", "result": "22 of 26"}]}
{"smiles": "O=C(O)c1cc(=O)c2c(Cl)cc(Cl)cc2[nH]1", "note": "[5,7-DCKA, 5,7-dichlorokynurenate]", "values": [{"measurement": "effect on glycine-evoked currents of NR1/NR3B receptors", "setting": "NR1/NR3B receptors", "result": "blocks glycine activated currents; also recorded: virtually abolished"}]}
{"smiles": "C[C@]12N[C@H](Cc3ccccc31)c1ccccc12", "note": "[MK-801]", "values": [{"measurement": "sensitivity of NR1/NR3B receptors to open-channel blocker compared to NR1/NR2A receptors", "setting": "NR1/NR3B receptors", "result": "drastically less sensitive"}, {"measurement": "sensitivity of NR1/NR3A receptors to open-channel blocker compared to NR1/NR2A receptors", "setting": "NR1/NR3A receptors", "result": "drastically less sensitive"}]}
{"smiles": "NC1=N[C@H](O)[C@H]2[C@H]3O[C@]4(O)O[C@@H]([C@@H](O)[C@@]2(N1)[C@@H]4O)[C@]3(O)CO", "note": "[tetrodotoxin]", "values": [{"measurement": "effect on glycine-evoked bursting response of cultured neurons", "setting": "[1]", "result": "inhibited"}]}
{"smiles": "CN[C@H](CC(=O)O)C(=O)O", "note": "[NMDA, N-methyl-D-aspartate]", "values": [{"measurement": "activation of NR1/NR3B receptors by the substance alone (without co-agonist)", "setting": "NR1/NR3B receptors", "result": "did not evoke glycine-independent responses; also recorded: did not evoke a glycine-independent response"}, {"measurement": "effect on glycine-evoked currents of NR1/NR3B receptors", "setting": "NR1/NR3B receptors", "result": "little or no effect; also recorded: did not potentiate glycine-evoked currents"}, {"measurement": "effect on glycine-evoked currents of NR1/NR3A receptors", "setting": "NR1/NR3A receptors", "result": "did not potentiate glycine-evoked currents"}]}
